Where “and” joins values, the source holds several entries; their conditions need not be identical. Identical values can stand only once.
Molecular target: T1, human A2a receptor (Homo sapiens, UniProt P29274)
T1 construct: purchased Perkin-Elmer RBHA2AM400UA; host or cells: HEK293 cell membranes
Experiment: A2a receptor competition binding assay using Scintillation Proximity technology
Settings: membranes from HEK293 cells expressing human A2a receptor; 0.5 nM tritiated radioligand; SPA beads; 1 h room temperature
Procedure, shortened: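 Membranes of HEK293 cells expressing human A2a, pretreated with adenosine deaminase, incubated 1 h at room temperature with 0.5 nM tritiated pyrazolotriazolopyrimidine antagonist (final) and compound (3000 to 0.15 nM) on WGA SPA beads in Ca/Mg-free PBS with 10 mM MgCl2. Ki from EC50 via Cheng-Prusoff.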

T1 sequence (P29274 whole entry): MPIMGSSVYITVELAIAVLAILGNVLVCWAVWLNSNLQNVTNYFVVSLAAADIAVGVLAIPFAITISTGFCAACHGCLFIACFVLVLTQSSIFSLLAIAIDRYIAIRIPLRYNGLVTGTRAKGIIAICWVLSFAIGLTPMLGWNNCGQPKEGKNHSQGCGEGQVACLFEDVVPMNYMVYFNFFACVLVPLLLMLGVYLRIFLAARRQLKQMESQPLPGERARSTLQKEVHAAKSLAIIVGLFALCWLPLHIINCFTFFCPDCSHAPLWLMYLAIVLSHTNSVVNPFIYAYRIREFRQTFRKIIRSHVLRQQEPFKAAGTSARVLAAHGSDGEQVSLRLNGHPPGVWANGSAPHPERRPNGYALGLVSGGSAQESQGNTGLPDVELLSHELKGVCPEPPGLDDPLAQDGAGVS

Row | SMILES | EC50
1 | COc1cccc2c1nc(N)n1nc(CCN3CCc4sc(C(F)(F)F)nc4C3)nc21 [Ex-26, 7-methoxy-2-(2-(2-(trifluoromethyl)-6,7-dihydrothiazolo[4,5-c]pyridin-5(4H)-yl)ethyl)-[1,2,4]triazolo[1,5-c]quinazolin-5-amine] | 0.5 nM
2 | COc1cccc2c1nc(N)n1nc(CCN3CCn4c(nnc4C(F)(F)F)C3)nc21 [Ex-17, 7-methoxy-2-(2-(3-(trifluoromethyl)-5,6-dihydro[1,2,4]triazolo[4,3-a]pyrazin-7(8H)-yl)ethyl)-[1,2,4]triazolo[1,5-c]quinazolin-5-amine] | 9.6 nM
3 | COc1cccc2c1nc(N)n1nc(CCN3CCc4nccnc4C3)nc21 [Ex-55, 2-(2-(7,8-dihydropyrido[4,3-b]pyrazin-6(5H)-yl)ethyl)-7-methoxy-[1,2,4]triazolo[1,5-c]quinazolin-5-amine] | 1.8 nM
4 | COc1cccc2c1nc(N)n1nc(CCN3CCCCc4cccnc43)nc21 [Ex-20, 2-(2-(7,8-dihydro-5H-pyrido[2,3-b]azepin-9(6H)-yl)ethyl)-7-methoxy-[1,2,4]triazolo[1,5-c]quinazolin-5-amine] | 12.8 nM
5 | COc1cccc2c1nc(N)n1nc(CCN3Cc4ccc(N5CCOCC5)nc4C3)nc21 [Ex-64] | 6.9 nM
6 | COc1cccc2c1nc(N)n1nc(CN3Cc4ccc(C(F)(F)F)cc4C3)nc21 [Ex-127, 7-methoxy-2-((2,3,4,5-(trifluoromethyl)isoindolin-2-yl)methyl)-[1,2,4]triazolo[1,5-c]quinazolin-5-amine] | 8.5 nM
7 | COc1cccc2c1nc(N)n1nc(CCN3CCc4cncnc4C3)nc21 [Ex-53, 2-(2-(5,6-dihydropyrido[3,4-d]pyrimidin-7(8H)-yl)ethyl)-7-methoxy-[1,2,4]triazolo[1,5-c]quinazolin-5-amine] | 2.4 nM
8 | Nc1nc2cc(F)ccc2c2nc(CCN3CCCc4ccccc43)nn12 [Ex-94] | 27.3 nM
9 | CCOC(=O)c1nnc2n1CCN(Cc1nc3c4cccc(OC)c4nc(N)n3n1)C2 [Ex-139, ethyl 7-((5-amino-7-methoxy-[1,2,4]triazolo[1,5-c]quinazolin-2-yl)methyl)-5,6,7,8-tetrahydro-[1,2,4]triazolo[4,3-a]pyrazine-3-carboxylate] | 110 nM
10 | COc1cccc2c1nc(N)n1nc(CCN3CCc4c(Br)ccnc4C3)nc21 [Ex-6, 2-(2-(4-bromo-5,6-dihydro-1,7-naplithyridin-7(8H)-yl)ethyl)-7-methoxy-[1,2,4]triazolo[1,5-c]quinazolin-5-amine] | 5.9 nM
11 | Cc1cccc2c1nc(N)n1nc(CN3Cc4cccnc4C3)nc21 [Ex-200, 2-((5H-pyrrolo[3,4-b]pyridine-6(7H)-yl)methyl)-7-methyl-[1,2,4]triazolo[1,5-c]quinazolin-5-amine] | 35.5 nM
12 | COc1cccc2c1nc(N)n1nc(CN3CCc4ccc(-c5cn(C)nc5C(F)(F)F)cc4C3)nc21 [Ex-184, 7-methoxy-2-((7-(1-methyl-3-(trifluoromethyl)-1H-pyrazol-4-yl)-3,4-dihydroisoquinolin-2(1H)-yl)methyl)-[1,2,4]triazolo[1,5-c]quinazolin-5-amine] | 2.9 nM
13 | Nc1nc2c(F)cccc2c2nc(CCN3Cc4cccc(F)c4C3)nn12 [Ex-89] | 47.7 nM
14 | Nc1nc2c(Cl)cccc2c2nc(CCN3CCCc4ccccc43)nn12 [Ex-82] | 24.7 nM
15 | Nc1nc2c(OCF)cccc2c2nc(CCN3Cc4cccnc4C3)nn12 [Ex-79, 2-(2-(5H-pyrrolo[3,4-b]pyridin-6(7H)-yl)ethyl)-7-(fluoromethoxy)-[1,2,4]triazolo[1,5-c]quinazolin-5-amine] | 22.3 nM
16 | COc1cccc2c1nc(N)n1nc(CN3CCc4cc(C#N)ccc4C3)nc21 [Ex-122, 2-((5-amino-7-methoxy-[1,2,4]triazolo[1,5-c]quinazolin-2-yl)methyl)-1,2,3,4-tetrahydroisoquinoline-6-carbonitrile] | 6 nM
17 | COc1cccc2c1nc(N)n1nc(CCN3Cc4ccc(C(F)(F)F)cc4C3)nc21 [Ex-46, 7-methoxy-2-(2-(5-(trifluoromethyl)isoindolin-2-yl)ethyl)-[1,2,4]triazolo[1,5-c]quinazolin-5-amine] | 18 nM
18 | COc1cccc2c1nc(N)n1nc(CCN3CCn4nccc43)nc21 [Ex-33, 2-(2-(2,3-dihydro-1H-imidazo[1,2-b]pyrazol-1-yl)ethyl)-7-methoxy-[1,2,4]triazolo[1,5-c]quinazolin-5-amine] | 4.2 nM
19 | COc1cccc2c1nc(N)n1nc(CCN3Cc4cncnc4C3)nc21 [Ex-19, 2-(2-(5H-pyrrolo[3,4-d]pyrimidin-6(7H)-yl)ethyl)-7-methoxy-[1,2,4]triazolo[1,5-c]quinazolin-5-amine] | 7.6 nM
20 | COc1cccc2c1nc(N)n1nc(CN3CCn4c(nnc4SC)C3)nc21 [Ex-138] | 146 nM
21 | COc1cccc2c1nc(N)n1nc(CCN3CCc4cccnc43)nc21 [Ex-21, 2-(2-(2,3-dihydro-1H-pyrrolo[2,3-b]pyridin-1-yl)ethyl)-7-methoxy-[1,2,4]triazolo[1,5-c]quinazolin-5-amine] | 31.2 nM
22 | CC[C@H](Cc1nc2c3cccc(OC)c3nc(N)n2n1)N1Cc2cccnc2C1 [Ex-112] | 4.9 nM

Row | SMILES | EC50
23 | COc1cccc2c1nc(N)n1nc(CN3CCc4cccnc4C3)nc21 [Ex-123, 2-((5,6-dihydro-1,7-naphthyridin-7(8H)-yl)methyl)-7-methoxy-[1,2,4]triazolo[1,5-c]quinazolin-5-amine] | 5.6 nM
24 | COc1cc(F)cc2c1nc(N)n1nc(CN3Cc4cccnc4C3)nc21 [Ex-164, 2-((5H-pyrrolo[3,4-b]pyridin-6(7H)-yl)methyl)-9-fluoro-7-methoxy-[1,2,4]triazolo[1,5-c]quinazolin-5-amine] | 8.6 nM
25 | Nc1nc2c(F)cccc2c2nc(CCN3Cc4cnc(C(F)(F)F)nc4C3)nn12 [Ex-88] | 42.3 nM
26 | CCOc1cccc2c1nc(N)n1nc(CN3CCc4cccnc4C3)nc21 [Ex-204, 2-((5,6-dihydro-1,7-naphthyridin-7(8H)-yl)methyl)-7-ethoxy-[1,2,4]triazolo[1,5-c]quinazolin-5-amine] | 40.7 nM
27 | COc1cccc2c1nc(N)n1nc(C[C@@H](C)N3CCn4nc(C)cc4C3)nc21 [Ex-221, (R)-7-methoxy-2-(2-(2-methyl-6,7-dihydropyrazolo[1,5-a]pyrazin-5(4H)-yl)propyl)-[1,2,4]triazolo[1,5-c]quinazolin-5-amine] | 3.9 nM
28 | COc1cccc2c1nc(N)n1nc(CCN3Cc4nc(C(C)C)sc4C3)nc21 [Ex-242, 2-(2-(2-isopropyl-4H-pyrrolo[3,4-d]thiazol-5(6H)-yl)ethyl)-7-methoxy-[1,2,4]triazolo[1,5-c]quinazolin-5-amine] | 0.1 nM
29 | COc1cccc2c1nc(N)n1nc(CN3CCc4cccc(-c5cncnc5)c4C3)nc21 [Ex-177, 7-methoxy-2-((8-(pyrimidin-5-yl)-3,4-dihydroisoquinolin-2(1H)-yl)methyl)-[1,2,4]triazolo[l,5-c]quinazolin-5-amine] | 17 nM
30 | COc1cccc2c1nc(N)n1nc(CCN3CCc4c(C5CC5)n[nH]c4C3)nc21 [Ex-40, 2-(2-(3-cyclopropyl-4,5-dihydro-1H-pyrazolo[3,4-c]pyridin-6(7H)-yl)ethyl)-7-methoxy-[1,2,4]triazolo[1,5-c]quinazolin-5-amine] | 1.1 nM
31 | COc1cccc2c1nc(N)n1nc(CN3CCCCc4cccnc43)nc21 [Ex-157, 2-((7,8-dihydro-5H-pyrido[2,3-b]azepin-9(6H)-yl)methyl)-7-methoxy-[1,2,4]triazolo[1,5-c]quinazolin-5-amine] | 1.6 nM
32 | COc1cccc2c1nc(N)n1nc(CN3CCc4cc(F)ccc4C3)nc21 [Ex-130, 2-((6-fluoro-3,4-dihydroisoquinolin-2(1H)-yl)methyl)-7-methoxy-[1,2,4]triazolo[1,5-c]quinazolin-5-amine] | 20.5 nM
33 | CCc1nc2c(s1)CN(CCc1nc3c4cccc(OC)c4nc(N)n3n1)C2 [Ex-243, 2-(2-(2-ethyl-4H-pyrrolo[3,4-d]thiazol-5(6H)-yl)ethyl)-7-methoxy-[1,2,4]triazolo[1,5-c]quinazolin-5-amine] | 1.3 nM
34 | COc1cccc2c1nc(N)n1nc(C[C@H](N3Cc4cccnc4C3)C(F)(F)F)nc21 [Ex-109] | 12.2 nM
35 | COc1cccc2c1nc(N)n1nc(CCN3CCc4c(C(F)(F)F)n[nH]c4C3)nc21 [Ex-42, 7-methoxy-2-(2-(3-(trifluoromethyl)-4,5-dihydro-1H-pyrazolo[3,4-c]pyridin-6(7H)-yl)ethyl)-[1,2,4]triazolo[1,5-c]quinazolin-5-amine] | 1.4 nM
36 | COc1cccc2c1nc(N)n1nc(CN3Cc4ccc(-c5cncnc5)cc4C3)nc21 [Ex-175] | 4.6 nM
37 | COc1cccc2c1nc(N)n1nc(CCN3Cc4ccc(N5CCCC5)nc4C3)nc21 [Ex-65] | 13.6 nM
38 | COc1cccc2c1nc(N)n1nc(CCN3Cc4cnc(C)nc4C3)nc21 [Ex-23, 7-methoxy-2-(2-(2-methyl-5H-pyrrolo[3,4-d]pyrimidin-6(7H)-yl)-ethyl)-[1,2,4]triazolo[1,5-c]quinazolin-5-amine] | 4.4 nM and 6.6 nM
39 | COc1cccc2c1nc(N)n1nc(CCN3CCn4nc(C5CC5)nc4C3)nc21 [Ex-12, 2-(2-(2-cyclopropyl-5,6-dihydro-[1,2,4]triazolo[1,5-a]pyrazin-7(8H)-yl)ethyl)-7-methoxy-[1,2,4]triazolo[1,5-c]quinazolin-5-amine] | 2 nM
40 | COc1cccc2c1nc(N)n1nc(CN3CCc4ccc(-c5ccc(F)c(F)c5)cc4C3)nc21 [Ex-168] | 4.3 nM
41 | CCc1nnc2n1CCN(CCc1nc3c4ccc(F)cc4nc(N)n3n1)C2 [Ex-95] | 16.5 nM
42 | CCc1nnc2n1CCN(Cc1nc3c4cccc(OC)c4nc(N)n3n1)C2 [Ex-142, 2-((3-ethyl-5,6-dihydro-[1,2,4]triazolo[4,3-a]pyrazin-7(8H)-yl)methyl)-7-methoxy-[1,2,4]triazolo[1,5-c]quinazolin-5-amine] | 350 nM
43 | COc1cccc2c1nc(N)n1nc(CCN3CCc4nc(C)sc4C3)nc21 [Ex-29, 7-methoxy-2-(2-(2-methyl-6,7-dihydrothiazolo[5,4-c]pyridin-5(4H)-yl)ethyl)-[1,2,4]triazolo[1,5-c]quinazolin-5-amine] | 1.7 nM

Reference: patent publication US10011615B2, “Heterobicyclo-substituted [1,2,4]triazolo[1,5-c]quinazolin-5-amine compounds with A2A anatagonist properties” (Merck Sharp & Dohme Corp., priority 2012, dated 2018)
